A melting point compilation (Tetko et al.)

| melting point | Compound |
| --- | --- |
| -98 °C | CC(C)CC(C)(C)CC(C)(C)CC(C)(C)C |
| 106 to 107 °C | O=Cc1csc2ccc(Br)cc12 |
| 237 °C | Cn1ccc(=O)[nH]c1=O |
| 72.5 °C | COC(=O)[C@@H]1CCCN1C(=O)COC(=O)c1ccccc1 |
| -58 °C | COCCOC |
| 156 to 157 °C | CSc1ncc(Br)c(C(=O)O)n1 |
| 166 °C | CC(NC(=O)c1ccccc1)C(=O)O (racemic) |
| -35 °C | CCCCCC=CCC=CCCCCCCCC(=O)OC |
| 213 °C | CC(=O)OC1CC2C(C)(C)CCCC2(C)C2=C1C(=O)C(C(C)C)=C(O)C2=O (stereo not given) |
| 225 °C | Brc1ccc(-c2c(Br)c(Br)c(Br)c(Br)c2Br)c(Br)c1Br |
| -90 °C | C=C(C)CCCCC |
| 206 °C | COC(=O)c1ccc(C(N)=O)cc1 |
| 175 to 176 °C | CC(C)(C)OC(=O)C(C)(C)Sc1nnc(N)s1 |
| 49 °C | FC(F)(F)c1cc(Br)ccc1Br |
| 250 °C | O=c1[nH]cnc2c1ncn2C1CC(O)C(CO)O1 (stereo not given) |
| 153 °C | CC(C)(C=O)C(c1ccccc1)C(C(=O)O)C(=O)O (stereo not given) |
| 60.5 °C | CC1CCC2C(C)C(=O)OCC12 (stereo not given) |
| 156 °C | O=C1OC(c2ccccn2)Cc2ccccc21 (stereo not given) |
| 33 to 38 °C | COCN1CCOCCOCCN(COC)CCOCCOCC1 |
| 45 to 46 °C | O=C(N=C=S)c1ccc(Cl)cc1 |
| 73 °C | O=Cc1ccccc1Sc1ccc(Cl)cc1 |
| 136 °C | CSc1nnc(S)s1 |
| 47 °C | Cc1c(F)cccc1CC#N |
| 67 to 68 °C | CC(C)(C)OC(=O)N1CCN(Cc2cccc(C=O)c2)CC1 |

| melting point | Compound |
| --- | --- |
| 27 °C | Cc1cccc(Cl)c1I |
| 86 to 88 °C | CC(=O)c1sccc1N |
| 81 to 83 °C | CC(C)(C)N=O |
| 157 °C | CCC(C(=O)O)C1(O)CCC(c2ccccc2)CC1 (stereo not given) |
| 140 °C | CC(C)(C)c1cc(CO)cc(C(C)(C)C)c1O |
| 48.3 °C | C1OCC2(CO1)COCOC2 |
| 81 °C | COC(=O)c1ccc([N+](=O)[O-])c(C)c1 |
| 133 °C | CCCCCCCCc1ccc(NC(=O)Oc2ccc(OC)cc2)cc1 |
| 114 °C | COc1cc(-c2ccc(N=C=O)c(OC)c2)ccc1N=C=O |
| 300 °C | CCOc1c(Nc2ccc(C(=O)O)cc2)c(=O)c1=O |
| -17 °C | C1CCC(CCCC2CCCCC2)CC1 |
| 51 to 52 °C | CCCCCCCCCCC#CC#CCCCCCCC(=O)O |
| 174 to 177 °C | COc1ccc(Oc2ccc(C(N)=NO)cc2[N+](=O)[O-])cc1 |
| 56 °C | Cc1cccc2c1CC2=O |
| 88 to 91 °C | CSC(SC)=C(C#N)S(=O)(=O)C(C)C |
| 59 °C | C[Si](C)(C)C1=CC2CCCCC2C1=O (stereo not given) |
| 66 °C | Oc1ccc(Br)c(Cl)c1 |
| 215 °C | CC(=O)c1ccc(NC(N)=S)cc1 |
| 46 °C | CC1NC(C)SC(C)S1 (stereo not given) |
| 36 °C | CCCCCCCCCCCCCCCCC=O |
| 155 °C | O=C(c1ccc(Br)cc1)c1noc(-c2ccc(Br)cc2)c1S(=O)(=O)c1ccccc1 |
| 54 to 55 °C | BrCc1cccc(-n2cccc2)c1 |
| 105 to 106 °C | O=C1OC(=O)C2CC(c3ccccc3)CCC12 (stereo not given) |
| 155 to 160 °C | COC(=O)C(=Cc1ccc(O)cc1)C(=O)OC |

| melting point | Compound |
| --- | --- |
| 115 to 117 °C | O=[N+]([O-])c1cc(Cl)ccc1S(=O)(=O)c1ccccc1 |
| 73 to 76 °C | O=C1CCC(c2ccccc2)c2ccccc21 (stereo not given) |
| 177 °C | CN(C)C(=O)NC1CC2CC1C1CCCC21 (stereo not given) |
| 110 °C | Cc1ccc(S(=O)(=O)Nc2ccccc2C)cc1 |
| 142 to 144 °C | Nc1ccc(-n2cncn2)cc1 |
| 128 to 131 °C | O=C(N=C=S)c1ccccc1 |
| 162 °C | NC(=O)c1cc(Cl)cc(Cl)c1N |
| 119 to 120 °C | CN(C)C=C(C=O)c1ccccc1[N+](=O)[O-] |
| 183 °C | Brc1ccc(Oc2ccc(Br)c(Br)c2Br)c(Br)c1Br |
| 270 to 271 °C | COc1ccccc1-n1ncc2c(=O)[nH]cnc21 |
| 105 °C | NC(=O)N1CCCCC1 |
| 99 °C | OC1(C#Cc2ccccc2)Cc2ccccc21 (stereo not given) |
| 162 °C | NC(=S)NC1CCCCC1 |
| 223 °C | O=c1nn[nH]c2ccccc12 |
| 177 °C | O=C1CCC(=O)N1Br |
| 299 °C | Cc1cc(C(=O)O)cc(C(=O)O)c1 |
| 161 °C | CC1(C(=O)O)CCC(C(Br)C(Br)c2ccccc2)C1(C)C (stereo not given) |
| 168 °C | CC12CCC(C1(C)C)C(CCC(Br)c1ccccc1)(C1(CCC(Br)c3ccccc3)C(=O)C3(C)CCC1C3(C)C)C2=O (stereo not given) |
| 44 °C | O=C(C=Cc1ccccc1)OCC=Cc1ccccc1 |
| 219 °C | COc1ccc(C2Nn3c(nnc3-c3cccnc3)S2)cc1 (stereo not given) |
| 118 to 120 °C | O=C(NCCCCCCCCNC(=O)C(Cl)Cl)C(Cl)Cl |
| 212 to 216 °C | CSc1nc(NS(=O)(=O)c2ccc(C)cc2)c(C#N)c(-c2ccccc2)c1Br |
| 43 °C | CC(=O)c1sccc1Br |
| 173 to 175 °C | O=C(O)CN1CCOCCOCCN(CC(=O)O)CCOCCOCC1 |

| melting point | Compound |
| --- | --- |
| -70 °C | NCC1CCCC(CN)C1 (stereo not given) |
| 127 °C | CCOC(=O)C(=O)C(C#N)c1ccccc1 (stereo not given) |
| 108 °C | CCCCCCCCCC(N)=O |
| 58 °C | CN(C)C(=O)COC1CCN(C(=O)OC(C)(C)C)CC1 |
| 57 °C | CC(C(=O)O)c1ccc(Cl)cc1 (stereo not given) |
| 80 °C | O=P(O)(OCc1ccccc1)OCc1ccccc1 |
| 235 °C | Cc1nc(O)ccc1[N+](=O)[O-] |
| 45 to 50 °C | COC(=O)c1ccc(CO)cc1 |
| 235 to 240 °C | CCOC(=O)c1c[nH]c2c(OC(F)(F)F)cccc2c1=O |
| 69 °C | COc1cc(C(=O)OCCCl)cc(OC)c1OC |
| 293 °C | O=c1c(O)c(O)c1=O |
| 103 °C | Nc1cccc(N)c1N |
| 136 to 138 °C | CCOC(=O)c1c[nH]nc1C |
| 155 °C | Oc1ccc(Cl)nc1 |
| 145 to 147 °C | CCC1CC(NC(=O)CNC(=O)CBr)C(C)(C)N1O (stereo not given) |
| 242 to 244 °C | Nc1ccc(C2=NNC(=O)CC2)cc1 |
| 89 to 90 °C | N#CCCn1cc(C(F)(F)F)ccc1=O |
| 335 to 337 °C | Cc1cc(C)c2c(=O)n(-c3ccc(Br)cc3)c(S)nc2n1 |
| 148 °C | COc1c2occc2cc2ccc(=O)oc12 |
| 153 °C | Nc1ccc(C(=O)Oc2ccccc2)c(O)c1 |
| 93 °C | CC(C)(C)OC(=O)Nc1ccccn1 |
| 96.5 °C | C[Si](C)(C)C1c2ccccc2-c2ccccc21 |
| 108 °C | C#CC1(O)CCC2C3CCc4cc(OC5CCCC5)ccc4C3CCC21C (stereo not given) |
| 85 to 87 °C | COC(=O)C(C#N)=C(SC)SC |

| melting point | Compound |
| --- | --- |
| 221 °C | N#CC1=C(N)Oc2c(c(C(F)(F)F)nn2-c2ccccc2)C1c1ccc(Cl)cc1 (stereo not given) |
| 79 to 80 °C | CC(C)CCCC(C)C1CCC2C3CCC4CCCCC4(C)C3CCC12C (stereo not given) |
| 55 °C | CC1=C(C)C(=O)C=CC1=O |
| -76 °C | N#CC1CCCC1 |
| 76 to 81 °C | N#CC1(c2c(F)cccc2Cl)CCCCC1 |
| 99 °C | C1CCC(P(CP(C2CCCCC2)C2CCCCC2)C2CCCCC2)CC1 |
| 144 °C | CCCCCOC(=O)C1=C(C)NC(=O)NC1c1ccc2c(c1)OCO2 (stereo not given) |
| 50 °C | CCC#CC(=O)O |
| 64 °C | COC(=O)C=Cc1ccc(O)c(OC)c1 |
| 200 to 201 °C | C/C(=N\O)c1cc(C(C)(C)C)c(O)c(C(C)(C)C)c1 |
| 94 to 96 °C | C#CCn1ccc2cc(C(=O)OC)ccc21 |
| 104 °C | c1ccc2c(c1)nnn2C1CCCCC1 |
| 165 to 170 °C | c1ccc(CN2CCc3c([nH]c4ccccc34)C2)cc1 |
| 130 to 132 °C | O=C(O)c1cc(-c2ccccc2)c(C(F)(F)F)s1 |
| 94 to 95 °C | Cn1cc(Br)c(CO)n1 |
| 31 °C | Clc1noc2ccccc12 |
| 164 °C | COc1ccc(CNC2=CC(=O)c3ccccc3C2=O)cc1 |
| 38 °C | O=[N+]([O-])c1ccc(S(F)(F)(F)(F)F)cc1 |
| 91 to 93 °C | O=C(CBr)c1ccc2c(c1)OCO2 |
| 94 °C | CC(C(=O)O)c1cccc(C(=O)c2ccccc2)c1 (stereo not given) |
| 170 to 172 °C | COc1ccc(C=Nc2n[nH]c(N=Cc3ccc(OC)c(OC)c3)c2Cc2ccc(Cl)cc2)cc1OC |
| 206 °C | CC(=O)c1cc(O)ccc1O |
| 155 to 156 °C | N#CC(=CNNc1ccccc1)c1ccccc1 |
| 107 to 109 °C | CCNc1cc(NC(C)=O)ccc1C |

| Compound | melting point |
| --- | --- |
| Cc1cccc(C)c1NC(N)=S | 195 °C |
| CC1(C)C(Br)=C(Br)C(=O)C1Br (stereo not given) | 87 °C |
| CN1CCN(c2ccccc2C=O)CC1 | 44 to 48 °C |
| C=CC(=O)NCO | 74.5 °C |
| O=[N+]([O-])c1cnc(NC2=NCCN2)s1 | > 250 °C |
| Cc1ccc(N)c(C)c1 | 16 °C |
| Brc1ccc2c(c1)CNCC2 | 34 °C |
| CC(C)c1cc(C(C)C)c(S(=O)(=O)N=[N+]=[N-])c(C(C)C)c1 | 42 °C |
| ClC(Cl)=C(Cl)C(Cl)=C(Cl)Cl | -21 °C |
| CCC(C)C1(CC)C(=O)NC(=O)NC1=O (stereo not given) | 167 °C |
| CCC(C)(C#N)N=NC(C)(C#N)CC (stereo not given) | 50 °C |
| CC(=O)OC1CCC2C3CCC4CC(C(C)=O)=CCC4(C)C3CCC12C (stereo not given) | 115 to 140 °C |
| CC(C)CC=CC(C(=O)O)C1=CCC2(C)C(CCC3C4CCC(O)C4(C)CCC32)C1 (stereo not given) | 200 °C |
| CCC1(CC)C(=O)NCC(C)C1=O (stereo not given) | 76 °C |
| N#CCC(=O)c1cccs1 | 112 °C |
